The text below walks through data of the METLIN SMRT retention time set (Domingo-Almenara et al. 2019).

This series can be described thus: gradient 5% acetonitrile 3 min, to 50% in 2 min, to 85% in 15 min, held 3 min, 100 µL/min. The following applies: column: Zorbax Extend-C18 2.1 x 50 mm; eluents: water / acetonitrile, 0.1% formic acid. In a few lines:
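In both positive and negative ionization mode, a quadrupole time-of-flight mass spectrometer coupled to HPLC analyzed pure standards run in mixtures of ~100 molecules. The Zorbax Extend-C18 column (2.1 × 50 mm, 1.8 μm) was operated at 100 μL/min with water and acetonitrile, each containing 0.1% formic acid. The dead volume was 40 μL and the dwell volume 900 μL. Retention time came from adduct peaks that were computationally picked and individually inspected by hand.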
Turning to `O=C(COc1ccccc1Cl)Nc1cncc(-c2nc3ccccc3o2)c1`, the RP-LC retention time was determined as 995 s.

Regarding `COc1ccc(NC(=O)Cn2cccc2-c2nnc(-c3ccccc3)o2)cc1`, the RP-LC retention time stood at 894 s.

For `CC(C)NC(=O)N1CCCC(CCc2nnc(-c3cnccn3)o2)C1` (stereo not given), the RP-LC retention time amounted to 627 s.

With `c1cc(-c2noc(-c3cccc4[nH]ccc34)n2)cc(-c2ccn[nH]2)c1`, the RP-LC retention time is 900 s.

Compound `CC(=O)N1CCC2(CC1)N(CC1CC1)C(=O)CS2=O` (stereo not given) displayed an RP-LC retention time of 565 s.

The compound `CCNC(=O)c1sc(-c2ccc(C)cc2)nc1C` came in with an RP-LC retention time of 850 s.

`CCOC(=O)c1nc(N2CCN(C3CCCCC3)CC2)c2ccccc2n1`: the RP-LC retention time was determined as 614 s.

For `COc1ccc2c(c1)C1(CCN(S(=O)(=O)c3ccc4c(c3)oc(=O)n4C)C1)C(=O)N2` (stereo not given), the RP-LC retention time was determined as 746 s.

In turn, `COc1ccc(/C=C2\CCc3ccccc3C2=O)cc1OC` came in with an RP-LC retention time of 994 s.

`COc1cccc(Cn2nc3c(S(=O)(=O)N4CCCCCC4)cccn3c2=O)c1` yielded an RP-LC retention time of 918 s.

With `COc1ccc(C)cc1NC(=O)C1CCN(S(=O)(=O)c2ccc3c(c2)NC(=O)C(C)O3)CC1` (stereo not given), the RP-LC retention time came out at 788 s.

Regarding `CCOC(=O)c1ccccc1NC(=O)C1=Cc2ccccc2OC=C1`, the RP-LC retention time was 1410 s.

Turning to `C[C@H]1CN(C(=O)c2nn(C)c3ccccc23)C[C@@H]1c1nc(-c2ccncc2)no1`, the RP-LC retention time came to 864 s.

As for `CCc1cc(C2CCCN2C(=O)Nc2ccc(Cl)cc2)on1` (stereo not given), the RP-LC retention time came out at 890 s.

With `CC(C)CNC(=O)N1CCCN(S(C)(=O)=O)CC1`, the RP-LC retention time was 615 s.

In the case of `COc1cccc(-c2noc(C3CCCN3C(=O)C3CCC3)n2)c1` (stereo not given), the RP-LC retention time was 912 s.

`CN(C)c1ccc(CNC(=O)c2ccc3c(c2)NC(=O)C2CCCCN32)cc1` (stereo not given) showed an RP-LC retention time of 617 s.

Turning to `COc1cccc(Cc2nc(-c3cn(-c4cccc(F)c4)nn3)no2)c1`, the RP-LC retention time was 993 s.

For the compound `Cc1cccc(S(=O)(=O)N2CCc3nc(-c4ccc(Cl)cc4)ncc3C2)c1`, the RP-LC retention time came to 1210 s.

For the compound `Cc1ccc(NC(=O)CN2C(=O)CCCc3cc(S(=O)(=O)N4CCCC4)ccc32)cc1C`, the RP-LC retention time is 824 s.

On to `Cc1cc(C(=O)NCC(C)C)c2cc(Cl)ccc2n1`, for which the RP-LC retention time turned out to be 784 s.

Compound `Cc1noc(C2CN(Cc3cc(Br)ccc3F)C2)n1` registered an RP-LC retention time of 554 s.

Compound `COc1ccc(-c2nnc(-c3cc(S(=O)(=O)N4CCCC4)ccc3Cl)o2)cc1` gave an RP-LC retention time of 1040 s.

In turn, `CC(C)(C)C(O)CCNC(=O)Cc1cccs1` (stereo not given) showed an RP-LC retention time of 673 s.

Turning to `Cc1cc2nc(NCCCO)n(CC(=O)c3cc(C(C)(C)C)c(O)c(C(C)(C)C)c3)c2cc1C`, the RP-LC retention time stood at 1030 s.

In turn, `O=C(Nc1nccs1)C1CCCN(c2ccc3cc(S(=O)(=O)N4CCCC4)ccc3n2)C1` (stereo not given) showed an RP-LC retention time of 693 s.

Turning to `CCNC(=O)c1sc2nc(-c3ccc(F)cc3)c(NCCOC)n2c1C`, the RP-LC retention time is 777 s.

For the compound `Cc1ccc(NC(=O)Cn2nc3c(Oc4ccccc4C)nccn3c2=O)cc1F`, the RP-LC retention time is 825 s.

On to `Cc1ccc(Cn2cccc(S(=O)(=O)N3CCCC3)c2=O)cc1`, for which the RP-LC retention time was found to be 859 s.

`O=C(CN1CCCCC1c1nc(-c2ccc(F)cc2)no1)NC1CCCCC1` (stereo not given): the RP-LC retention time was 1150 s.

The compound `COc1ccc(NC(=O)Cn2nc3nc(N4CCOCC4)ccn3c2=O)cc1F` had an RP-LC retention time of 602 s.

`Cc1ccc(-c2nc(N3CC4(C)CC3CC(C)(C)C4)c3ccccc3n2)cc1` (stereo not given) showed an RP-LC retention time of 1060 s.

`O=C(c1cncnc1)N1CCC(F)(F)C(COCC2CC2)C1` (stereo not given) returned an RP-LC retention time of 683 s.

Take `CSc1cccc(NC(=O)c2cnc(-c3ccc(F)cc3)nc2-c2ccncc2)c1`: the RP-LC retention time was found to be 973 s.

`O=C(c1ccco1)N1CCC(n2cnnc2-c2ccccc2)CC1` showed an RP-LC retention time of 639 s.

`CC(NC(=O)c1nnc(-c2ccc(S(=O)(=O)N(C)C)cc2)o1)c1ccccn1` (stereo not given) registered an RP-LC retention time of 683 s.

Consider `Oc1c(C(Nc2ccccc2)c2ccccn2)ccc2cccnc12` (stereo not given), for which the RP-LC retention time was 763 s.

Compound `Cc1ccc(-c2nc3cnccn3c2Nc2ccc(Br)cc2)cc1` showed an RP-LC retention time of 1030 s.

The compound `Cc1ccc(-c2nnc(CC(=O)NCCc3cccs3)o2)cc1` yielded an RP-LC retention time of 771 s.

With `Cc1ccccc1Nc1c(-c2cccc(Cl)c2)nc2ccccn12`, the RP-LC retention time came to 787 s.

`O=C1NC2(CCN(C(=O)c3cccc(F)c3)CC2)N=C1c1cccc(F)c1` had an RP-LC retention time of 821 s.

Regarding `Cc1ccc2c(Nc3ccc(Cl)cc3)c(C(=O)N3CCOCC3)cnc2n1`, the RP-LC retention time stood at 608 s.

`O=C1CC(c2ccc(C(=O)O)cc2)c2scc(-c3cccc(F)c3)c2N1` (stereo not given): the RP-LC retention time was 823 s.

`Cc1ccc(NC(=O)C2CCN(S(=O)(=O)c3cn(C(C)C)cn3)CC2)cc1Cl` had an RP-LC retention time of 883 s.

Turning to `COc1ccc(NC(=O)Cn2c(=O)nc(N3CCC(C)CC3)c3ccccc32)c(OC)c1`, the RP-LC retention time stood at 831 s.

The compound `FC(F)(F)c1nc2ccccc2n1CC1CCN(Cc2cn3ccccc3n2)CC1` yielded an RP-LC retention time of 557 s.

As to `CCOc1ccc(N2C(=O)C3N=NN(Cc4nc(-c5ccc(Cl)cc5)no4)C3C2=O)cc1` (stereo not given), the RP-LC retention time was determined as 722 s.

As to `CCOc1ccc(Cl)cc1S(=O)(=O)N1CCC(C(=O)NC2CCCC2)CC1`, the RP-LC retention time was 916 s.

Take `CC(C)CC(=O)Nc1ccc(N2CCN(CC(=O)N3CCCC3)CC2)cc1C(=O)O`: the RP-LC retention time was 614 s.

For the compound `CN1C(=O)C2CCCCN2c2ccc(C(=O)N3CCN(c4ccccn4)CC3)cc21` (stereo not given), the RP-LC retention time is 603 s.

For `c1cncc(-c2nc(-c3ccc4c(c3)nnn4CCN3CCCCC3)no2)c1`, the RP-LC retention time turned out to be 614 s.

As to `CC(=O)N(C1CCOCC1)C1CCN(C(=O)c2ccc(C)s2)CC1`, the RP-LC retention time came to 673 s.

In turn, `CN(C)c1ccc(C(=O)Nc2cnc(N3CCOCC3)nc2)cc1` returned an RP-LC retention time of 729 s.

Take `COc1nc2c(c(C)nn2-c2ccccc2)c(C)c1CCC(=O)NCCc1c[nH]c2ccccc12`: the RP-LC retention time was found to be 1130 s.

For the compound `Cc1ccc(C)c(NC(=O)N2CCC(N3CCN(Cc4ccc(F)cc4)C(=O)C3=O)CC2)c1`, the RP-LC retention time is 754 s.

With `CCN(CC)CCNC(=O)C1CCN(c2ccc(-c3cccs3)nn2)CC1`, the RP-LC retention time was found to be 556 s.

Consider `Cn1c(N2CCN(C(=O)c3c(F)cccc3F)CC2)cc(=O)n(C)c1=O`, for which the RP-LC retention time came to 648 s.

On to `CCOC(=O)c1cc(S(=O)(=O)N2CCCC2C(=O)Nc2cc(Cl)c(OC)cc2OC)cn1C` (stereo not given), for which the RP-LC retention time came out at 1010 s.

On to `COc1ccc(-c2nnc(CC(=O)NCC3CCCO3)o2)cc1` (stereo not given), for which the RP-LC retention time came to 650 s.

Compound `COCc1cc(=O)n(Cc2cc(C)ccc2C)c(N2CCCC2)n1` showed an RP-LC retention time of 912 s.

Consider `O=C(NCCc1ccccn1)C1CCCN(c2nnc3ccc(C(F)(F)F)cn23)C1` (stereo not given), for which the RP-LC retention time came out at 583 s.

`Cc1ccc(Nc2c(-c3ccc(N4CCOCC4)cc3)nc3ccc(C)cn23)cc1` had an RP-LC retention time of 739 s.

As for `Cc1cc(N2CCCC2)n2nc(-c3ccc(C(C)(C)C)cc3)nc2n1`, the RP-LC retention time stood at 968 s.

In turn, `CC(C)C(=O)N1CCc2cc(CNS(=O)(=O)Cc3ccccc3)ccc21` showed an RP-LC retention time of 652 s.

With `CC(C)CN1C(=O)c2cccn2CC1C(=O)NCCCN1CCOCC1` (stereo not given), the RP-LC retention time came out at 577 s.

As to `O=C(c1cc(F)ccc1F)N1CCc2nc(-c3ccc(Cl)cc3)ncc2C1`, the RP-LC retention time was 1090 s.

`Cc1nc(NC(=O)c2ccc(-n3ccnc3)nn2)sc1C` had an RP-LC retention time of 589 s.

`CCc1ccccc1NS(=O)(=O)c1cc(-c2c(CC)noc2NC(C)=O)ccc1C` came in with an RP-LC retention time of 855 s.

As to `COc1ccc(CNS(=O)(=O)c2cc3n(c2)CCCNC3=O)cc1`, the RP-LC retention time was 641 s.

Regarding `CCc1ccc(C(=O)Nc2cnn(CC)c(=O)c2N2CCOCC2)cc1`, the RP-LC retention time was determined as 1070 s.

`O=C1CC(c2ccc(Cl)cc2)Cc2nc(N3CCN(c4ccccn4)CC3)ncc21` (stereo not given) yielded an RP-LC retention time of 752 s.

`Cc1ccc(Cn2c(N3CCCC(C(=O)NCc4ccc(C)o4)C3)nc3ccsc3c2=O)cc1` (stereo not given): the RP-LC retention time stood at 952 s.

As for `CCOC(=O)COc1cc(O)cc2oc(-c3ccccc3)cc(=O)c12`, the RP-LC retention time turned out to be 695 s.

In turn, `CC(C)(C)NCC(O)COc1cccc2[nH]c(=O)[nH]c12` (stereo not given) displayed an RP-LC retention time of 603 s.

Compound `CCN1C(=O)c2cccnc2Sc2cc(NC(=O)c3ccc(C)c(C)c3)ccc21` showed an RP-LC retention time of 918 s.

`CCc1ccc(N2C(=O)C3N=NN(c4cccc(OC)c4)C3C2=O)cc1` (stereo not given) displayed an RP-LC retention time of 1020 s.

The compound `Cc1ccccc1N1CCN(C(=O)C2=CCN(Cc3cccc(F)c3)CC2)CC1` showed an RP-LC retention time of 712 s.

`COc1ccc(N2CCN(c3cc(SCC(=O)Nc4ccc(F)cc4C)ncn3)CC2)cc1`: the RP-LC retention time is 959 s.

Turning to `O=C([C@@H]1C[C@H](Oc2cccnc2)CN1C(=O)C1CC=CC1)N1CCCC1`, the RP-LC retention time was found to be 571 s.

The compound `CCC1Oc2ccc(S(=O)(=O)N3CCC(C(=O)Nc4ccc(C)c(C)c4)CC3)cc2NC1=O` (stereo not given) came in with an RP-LC retention time of 930 s.
